Patent US6242445A, “Benzimidazole derivative” (Kureha Chemical Industry Co., Ltd., priority 1998, dated 2001)

Assays:
[1] = J. Clin. Pharmacol., 30: 155 to 158, 1990; cited from earlier work
[2] = target: T1, angiotensin II receptor subtype 2 (AT2) (Bos taurus, UniProt G5E6F7); assay: Binding assay, angiotensin II receptor subtype 2 (AT2); design: species or system bovine; dose or concentration left out as unconfirmed; conditions: 1 h; tracer 125I-Tyr4-angiotensin II
T1 construct: from cerebellar cortex in bovine; from tissue; host or cells: cerebellar cortex, bovine
T1 sequence (G5E6F7 1-362): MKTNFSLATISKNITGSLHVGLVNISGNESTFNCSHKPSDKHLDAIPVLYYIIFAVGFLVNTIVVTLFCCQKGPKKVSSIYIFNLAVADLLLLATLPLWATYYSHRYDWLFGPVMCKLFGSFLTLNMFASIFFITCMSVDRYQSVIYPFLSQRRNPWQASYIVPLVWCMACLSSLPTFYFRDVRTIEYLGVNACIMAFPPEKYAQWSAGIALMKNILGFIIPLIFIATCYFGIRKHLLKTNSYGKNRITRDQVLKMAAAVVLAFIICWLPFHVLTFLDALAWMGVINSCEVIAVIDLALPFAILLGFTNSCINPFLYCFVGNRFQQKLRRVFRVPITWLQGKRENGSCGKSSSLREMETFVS
Description: (§1) In this Example, a binding assay was carried out. That is, the affinity to the angiotensin II receptor subtype 1 orsubtype 2 was evaluated in accordance with the method described in Biochem. Pharmacol., 33, 4057-4062 (1984).
(§2) Specifically, the measurement of the total binding in the presence of each drug was performed as follows:
(§3) A mixture (final volume=0.25 ml) of a drug in a given concentration (the drug was dissolved in DMSO, and diluted to a double volume with a buffer attached to a drug discovery system to prepare a sample for the assay; 0.025 ml), a tracer (0.025 ml), and receptors (0.2 ml) was incubated [in the case of the angiotensin II receptor subtype 1 (AT1), at room temperature for 3 hours, and in the case of the subtype 2 (AT2), at 37° C. for 1 hour]. Then, the reaction mixture was filtered with suction (a GF/C filter was used in AT1, and a GF/B filter was used in AT2). The filter papers after filtration with suction (the tracer bound to the receptors) were counted by a γ-well counter (ARC-500, Aloka). The non-specific bindings were measured by repeating the above method, except that a large excess amount of a displacer was added. The specific binding of the drug in the given concentration was calculated by subtracting the non-specific binding from the total binding, respectively.
In AT1 and AT2, the percentages found to inhibit the bindings of radioactive ligands (tracer) to receptors by the drugs to be tested (IC50 value of concentration to show 50% inhibition, […]) were measured, using the drugs to be tested and control drugs in the given concentration.
receptor: from cerebellar cortex in bovine
tracer: ^125 I-Tyr^4 -angiotensin II
control drug: angiotensin II (human)
(displacer): angiotensin II (human)

[3] = target: T2, angiotensin II receptor subtype 1 (AT1) (Oryctolagus cuniculus, UniProt P34976); assay: Binding assay, angiotensin II receptor subtype 1 (AT1); design: species or system rabbits; inhibition: dose or concentration left out as unconfirmed; conditions: 3 h
T2 construct: from adrenal glands in rabbits; from tissue; host or cells: adrenal glands of rabbits
T2 sequence (P34976 1-359): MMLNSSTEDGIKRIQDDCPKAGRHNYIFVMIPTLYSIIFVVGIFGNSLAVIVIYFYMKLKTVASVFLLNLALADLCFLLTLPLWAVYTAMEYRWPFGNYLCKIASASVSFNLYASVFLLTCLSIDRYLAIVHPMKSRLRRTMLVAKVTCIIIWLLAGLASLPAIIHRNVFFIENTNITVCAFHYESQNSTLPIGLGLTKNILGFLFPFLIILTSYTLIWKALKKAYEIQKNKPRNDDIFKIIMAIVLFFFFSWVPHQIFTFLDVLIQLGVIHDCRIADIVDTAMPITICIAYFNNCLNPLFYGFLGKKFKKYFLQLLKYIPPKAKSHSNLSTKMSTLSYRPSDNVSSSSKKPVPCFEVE
Description: as §1, §2, §3
tracer: ^3 H-angiotensin II

[4] = system: ICR female mice; assay: Acute toxicity (single oral administration); format: in vivo; conditions: 500 mg/kg single oral; deaths observed for 6 days
Description: Acute toxicity was evaluated in this Example. As a compound to be examined, 2-ethoxy-1-[[4'-(2"-N,N-dimethylamino-ethoxycarbonyl)phenyl]methyl]-1H-benzimidazole-6-carboxylic acid morpholide (Compound No. 13) prepared in Example 6 was used.
Five-week-old ICR female mice (5 mice per group) were bredfor acclimation for a week. Then, Compound No. 13 was dissolved or suspended in 0.5% methylcellulose aqueous solution, and orally administered to the mice in a single dosage (500 mg/kg). […] Further, as to Compound No. 55, Compound No. 57, Compound No. 59, and Compound No. 65 prepared in Examples 26, 28, 31, and 23, respectively, acute toxicity was also evaluated.

inhibition [2] [%] | inhibition [3] [%] | Compound | also measured
0 | 45 | CCOc1nc2ccc(C(=O)N3CCOCC3)cc2n1Cc1ccc(C(=O)O)cc1 [Compound No. 1, 2-ethoxy-1-[(4'-carboxyphenyl)methyl]-1H-benzimidazole-6-carboxylic acid morpholide] | –
0 | 45 | CCCOc1nc2ccc(C(=O)N3CCOCC3)cc2n1Cc1ccc(C(=O)O)cc1 [Compound No. 3, 2-n-propoxy-1-[(4'-carboxyphenyl)methyl]-1H-benzimidazole-6-carboxylic acid morpholide] | –
0 | 45 | CCCCOc1nc2ccc(C(=O)N3CCOCC3)cc2n1Cc1ccc(C(=O)O)cc1 [Compound No. 4] | –
0 | 50 | CCOc1nc2ccc(C(=O)N3CCCCC3)cc2n1Cc1ccc(C(=O)O)cc1 [Compound No. 5, 2-ethoxy-1-[(4'-carboxyphenyl)methyl]-1H-benzimidazole-6-carboxylic acid piperidinamide] | –
0 | 50 | CCOc1nc2ccc(C(=O)N3CCCC3)cc2n1Cc1ccc(C(=O)O)cc1 [Compound No. 6, 2-ethoxy-1-[(4'-carboxyphenyl)methyl]-1H-benzimidazole-6-carboxylic acid pyrrolidinamide] | –
0 | 0 | CCOc1nc2ccc(C(=O)N3CCOCC3)cc2n1Cc1ccc(O)cc1 [compound 2] | –

More lines, now with the values behind:

Compound | inhibition [2] [%] | inhibition [3] [%] | also measured
C[C@H](CS)C(=O)N1CCC[C@H]1C(=O)O [Captopril] | – | – | Blood pressure [1]: the blood pressure is lowered; progress of the kidney diseases [1]: the progress of the kidney diseases is ameliorated
CCOc1nc2ccc(C(=O)N3CCCCC3)cc2n1Cc1ccc(C(=O)OCCN(C)C)cc1 [Compound No. 55, 2-ethoxy-1-[[4'-(2"-N,N-dimethylaminoethoxycarbonyl)phenyl]methyl]-1H-benzimidazole-6-carboxylic acid piperidinamide] | – | – | Number of deaths/number of survivals [4]: 0/5
CCOc1nc2ccc(C(=O)N3CCCCCC3)cc2n1Cc1ccc(C(=O)OCCN(C)C)cc1 [Compound No. 59, 2-ethoxy-1-[[4'-(2"-N,N-dimethylaminoethoxycarbonyl)phenyl]methyl]-1H-benzimidazole-6-carboxylic acid perhydroazepinamide] | – | – | Number of deaths/number of survivals [4]: 0/5
CCOc1nc2ccc(C(=O)N3CCCC3)cc2n1Cc1ccc(C(=O)OCCN(C)C)cc1 [Compound No. 65, 2-ethoxy-1-[[4'-[2"-(dimethylamino)-ethoxycarbonyl]phenyl]methyl]-1H-benzimidazole-6-carboxylic acid pyrrolidinamide] | – | – | Number of deaths/number of survivals [4]: 0/5
CCOC(=O)[C@H](CCc1ccccc1)N[C@@H](C)C(=O)N1CCC[C@H]1C(=O)O [Enalapril] | – | – | Blood pressure [1]: the blood pressure is lowered; progress of the kidney diseases [1]: the progress of the kidney diseases is ameliorated
